The text below walks through data of patent US12390440B2, “Immunomodulating trifluoromethyl-aminal azalides” (Zoetis Services LLC, priority 2020, dated 2025).

The structures appear in SMILES notation. Read-outs that look alike come from different tables or passages of the source.

One series relates to TNF-α. The experiment in a line: Bovine whole blood assay, LPS-induced TNF-α. It is filed as cell-based. The settings on record: Bos taurus, fresh whole bovine blood, LPS 1 μg/mL. The method, then:
(§1) (protected from light) for 30 minutes.

The subject of the next series is IL-1β. Briefly: Bovine whole blood assay, IL-1β.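 Further: compound concentration at which rising IL-1β release signals cytotoxicity.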 To be noted: overstimulation of IL-1β, perceived cellular toxicity concentration. It is filed as cell-based. Here is the method: as §1
In series [1] the test system is BRD pathogens, M. haemolytica and P. multocida. Briefly: MIC screening panel, BRD pathogens (CLSI broth micro-dilution).

The IC50 is the concentration that inhibits the measured activity by half. Higher therefore signals lower potency. Compound `CC[C@H]1OC(=O)[C@H](C)[C@@H](O[C@H]2C[C@@](C)(OC)[C@](O)(CNCCS(N)(=O)=O)[C@H](C)O2)[C@H](C)[C@@H](O[C@@H]2O[C@H](C)C[C@H]3[C@H]2OC(C(F)(F)F)N3C)[C@](C)(O)C[C@@H](C)CN[C@H](C)[C@@H](O)[C@]1(C)O` (stereo partly drawn) [Example A-20, 2-((((2S,3S,4R,6R)-6-(((2R,3S,4R,5R,8R,10R,11R,12S,13S,14R)-11-(((3aR,4S,6R,7aS)-1,6-dimethyl-2-(trifluoromethyl)hexahydro-2H-pyrano[4,3-d]oxazol-4-yl)oxy)-2-ethyl-3,4,10-trihydroxy-3,5,8,10,12,14-hexamethyl-15-oxo-1-oxa-6-azacyclopentadecan-13-yl)oxy)-3-hydroxy-4-methoxy-2,4-dimethyltetrahydro-2H-pyran-3-yl)methyl)amino)ethane-1-sulfonamide] returned a concentration for half-maximal inhibition (IC50) in the series with TNF-α of 141 µM. The “IL-1β OS of LPS” value with IL-1β came out at 100 µM.

As a reminder, the MIC is the lowest concentration that inhibits growth of the organism. Turning to `CC[C@H]1OC(=O)[C@H](C)[C@@H](O[C@H]2C[C@@](C)(OC)[C@](O)(CNCCN3CCCCC3=O)[C@H](C)O2)[C@H](C)[C@@H](O[C@@H]2O[C@H](C)C[C@H]3[C@H]2OC(C(F)(F)F)N3C)[C@](C)(O)C[C@@H](C)CN[C@H](C)[C@@H](O)[C@]1(C)O` (stereo partly drawn) [Example A-15, (2R,3S,4R,5R,8R,10R,11R,12S,13S,14R)-11-(((3aR,4S,6R,7aS)-1,6-dimethyl-2-(trifluoromethyl)hexahydro-2H-pyrano[4,3-d]oxazol-4-yl)oxy)-2-ethyl-3,4,10-trihydroxy-13-(((2R,4R,5S,6S)-5-hydroxy-4-methoxy-4,6-dimethyl-5-(((2-(2-oxopiperidin-1-yl)ethyl)amino)methyl)tetrahydro-2H-pyran-2-yl)oxy)-3,5,8,10,12,14-hexamethyl-1-oxa-6-azacyclopentadecan-15-one], 23 µM corresponded to half-maximal inhibition in the series on TNF-α (IC50). Further, the minimal inhibitory concentration (MIC) in series [1] (read-out: MIC flag (*) at Ex #) is less than 64 µg/mL. In addition, the “IL-1β OS of LPS” value in the series on IL-1β came to 40 µM.

Consider `CC[C@H]1OC(=O)[C@H](C)[C@@H](O[C@H]2C[C@@](C)(OC)[C@](O)(CNCCNC(C)=O)[C@H](C)O2)[C@H](C)[C@@H](O[C@@H]2O[C@H](C)C[C@H]3[C@H]2OC(C(F)(F)F)N3C)[C@](C)(O)C[C@@H](C)CN[C@H](C)[C@@H](O)[C@]1(C)O` (stereo partly drawn) [Example A-22, N-(2-((((2S,3S,4R,6R)-6-(((2R,3S,4R,5R,8R,10R,11R,12S,13S,14R)-11-(((3aR,4S,6R,7aS)-1,6-dimethyl-2-(trifluoromethyl)hexahydro-2H-pyrano[4,3-d]oxazol-4-yl)oxy)-2-ethyl-3,4,10-trihydroxy-3,5,8,10,12,14-hexamethyl-15-oxo-1-oxa-6-azacyclopentadecan-13-yl)oxy)-3-hydroxy-4-methoxy-2,4-dimethyltetrahydro-2H-pyran-3-yl)methyl)amino)ethyl)acetamide], for which the 50% inhibitory concentration (IC50) in the series on TNF-α came out at 62 µM. In addition, the MIC in series [1] (read-out: MIC flag (*) at Ex #) is less than 64 µg/mL. Further, the “IL-1β OS of LPS” value with IL-1β is 40 µM.

For `CCNC[C@]1(O)[C@H](C)O[C@@H](O[C@H]2[C@H](C)[C@@H](O[C@@H]3O[C@H](C)C[C@H]4[C@H]3OC(C(F)(F)F)N4C)[C@](C)(O)C[C@@H](C)CN[C@H](C)[C@@H](O)[C@](C)(O)[C@@H](CC)OC(=O)[C@@H]2C)C[C@@]1(C)OC` (stereo partly drawn) [Example A-5, (2R,3S,4R,5R,8R,10R,11R,12S,13S,14R)-11-(((3aR,4S,6R,7aS)-1,6-dimethyl-2-(trifluoromethyl)hexahydro-2H-pyrano[4,3-d]oxazol-4-yl)oxy)-2-ethyl-13-(((2R,4R,5S,6S)-5-((ethylamino)methyl)-5-hydroxy-4-methoxy-4,6-dimethyltetrahydro-2H-pyran-2-yl)oxy)-3,4,10-trihydroxy-3,5,8,10,12,14-hexamethyl-1-oxa-6-azacyclopentadecan-15-one], in the series on TNF-α, the IC50 was 5 µM. Further, the “IL-1β OS of LPS” value with IL-1β was determined as 5 µM.

In the case of `CC[C@H]1OC(=O)[C@H](C)[C@@H](O[C@H]2C[C@@](C)(OC)[C@](O)(CNCC3CCN(C(C)=O)CC3)[C@H](C)O2)[C@H](C)[C@@H](O[C@@H]2O[C@H](C)C[C@H]3[C@H]2OC(C(F)(F)F)N3C)[C@](C)(O)C[C@@H](C)CN[C@H](C)[C@@H](O)[C@]1(C)O` (stereo partly drawn) [Example A-18, (2R,3S,4R,5R,8R,10R,11R,12S,13S,14R)-13-(((2R,4R,5S,6S)-5-((((1-acetylpiperidin-4-yl)methyl)amino)methyl)-5-hydroxy-4-methoxy-4,6-dimethyltetrahydro-2H-pyran-2-yl)oxy)-11-(((3aR,4S,6R,7aS)-1,6-dimethyl-2-(trifluoromethyl)hexahydro-2H-pyrano[4,3-d]oxazol-4-yl)oxy)-2-ethyl-3,4,10-trihydroxy-3,5,8,10,12,14-hexamethyl-1-oxa-6-azacyclopentadecan-15-one], the MIC in series [1] (read-out: MIC flag (*) at Ex #) was less than 64 µg/mL.

In the series with TNF-α, `CC[C@H]1OC(=O)[C@H](C)[C@@H](O[C@H]2C[C@@](C)(OC)[C@](O)(CNCCOCCO)[C@H](C)O2)[C@H](C)[C@@H](O[C@@H]2O[C@H](C)C[C@H]3[C@H]2OC(C(F)(F)F)N3C)[C@](C)(O)C[C@@H](C)CN[C@H](C)[C@@H](O)[C@]1(C)O` (stereo partly drawn) [Example A-16, (2R,3S,4R,5R,8R,10R,11R,12S,13S,14R)-11-(((3aR,4S,6R,7aS)-1,6-dimethyl-2-(trifluoromethyl)hexahydro-2H-pyrano[4,3-d]oxazol-4-yl)oxy)-2-ethyl-3,4,10-trihydroxy-13-(((2R,4R,5S,6S)-5-hydroxy-5-(((2-(2-hydroxyethoxy)ethyl)amino)methyl)-4-methoxy-4,6-dimethyltetrahydro-2H-pyran-2-yl)oxy)-3,5,8,10,12,14-hexamethyl-1-oxa-6-azacyclopentadecan-15-one] came in with a half-inhibitory concentration (IC50) of 28 µM. The “IL-1β OS of LPS” value with IL-1β was found to be 40 µM.

In the case of `CCCNC[C@]1(O)[C@H](C)O[C@@H](O[C@H]2[C@H](C)[C@@H](O[C@@H]3O[C@H](C)C[C@H]4[C@H]3OC(C(F)(F)F)N4C)[C@](C)(O)C[C@@H](C)CN(C)[C@H](C)[C@@H](O)[C@](C)(O)[C@@H](CC)OC(=O)[C@@H]2C)C[C@@]1(C)OC` (stereo partly drawn) [Example A-26, (2R,3S,4R,5R,8R,10R,11R,12S,13S,14R)-11-(((3aR,4S,6R,7aS)-1,6-dimethyl-2-(trifluoromethyl)hexahydro-2H-pyrano[4,3-d]oxazol-4-yl)oxy)-2-ethyl-3,4,10-trihydroxy-13-(((2R,4R,5S,6S)-5-hydroxy-4-methoxy-4,6-dimethyl-5-((propylamino)methyl)tetrahydro-2H-pyran-2-yl)oxy)-3,5,6,8,10,12,14-heptamethyl-1-oxa-6-azacyclopentadecan-15-one], the MIC in series [1] (read-out: MIC flag (*) at Ex #) is less than 64 µg/mL.

As for `CC[C@H]1OC(=O)[C@H](C)[C@@H](O[C@H]2C[C@@](C)(OC)[C@](O)(CNCCC(=O)N(C)C)[C@H](C)O2)[C@H](C)[C@@H](O[C@@H]2O[C@H](C)C[C@H]3[C@H]2OC(C(F)(F)F)N3C)[C@](C)(O)C[C@@H](C)CN[C@H](C)[C@@H](O)[C@]1(C)O` (stereo partly drawn) [Example A-17, 3-((((2S,3S,4R,6R)-6-(((2R,3S,4R,5R,8R,10R,11R,12S,13S,14R)-11-(((3aR,4S,6R,7aS)-1,6-dimethyl-2-(trifluoromethyl)hexahydro-2H-pyrano[4,3-d]oxazol-4-yl)oxy)-2-ethyl-3,4,10-trihydroxy-3,5,8,10,12,14-hexamethyl-15-oxo-1-oxa-6-azacyclopentadecan-13-yl)oxy)-3-hydroxy-4-methoxy-2,4-dimethyltetrahydro-2H-pyran-3-yl)methyl)amino)-N,N-dimethylpropanamide], the MIC in series [1] (read-out: MIC flag (*) at Ex #) was less than 64 µg/mL.

Consider `CC[C@H]1OC(=O)[C@H](C)[C@@H](O[C@H]2C[C@@](C)(OC)[C@](O)(CNCCS(=O)(=O)N(C)C)[C@H](C)O2)[C@H](C)[C@@H](O[C@@H]2O[C@H](C)C[C@H]3[C@H]2OC(C(F)(F)F)N3C)[C@](C)(O)C[C@@H](C)CN[C@H](C)[C@@H](O)[C@]1(C)O` (stereo partly drawn) [Example A-13, 2-((((2S,3S,4R,6R)-6-(((2R,3S,4R,5R,8R,10R,11R,12S,13S,14R)-11-(((3aR,4S,6R,7aS)-1,6-dimethyl-2-(trifluoromethyl)hexahydro-2H-pyrano[4,3-d]oxazol-4-yl)oxy)-2-ethyl-3,4,10-trihydroxy-3,5,8,10,12,14-hexamethyl-15-oxo-1-oxa-6-azacyclopentadecan-13-yl)oxy)-3-hydroxy-4-methoxy-2,4-dimethyltetrahydro-2H-pyran-3-yl)methyl)amino)-N,N-dimethylethane-1-sulfonamide], for which the midpoint of inhibition in the series with TNF-α, the IC50, lay at 18 µM. In the series with IL-1β, the “IL-1β OS of LPS” value worked out at 40 µM.

For the compound `CC[C@H]1OC(=O)[C@H](C)[C@@H](O[C@H]2C[C@@](C)(OC)[C@@H](O)[C@H](C)O2)[C@H](C)[C@@H](O[C@@H]2O[C@H](C)C[C@H]3[C@H]2OC(C(F)(F)F)N3C)[C@](C)(O)C[C@@H](C)CN(C)[C@H](C)[C@@H](O)[C@]1(C)O` (stereo partly drawn) [Example C-1, (2R,3S,4R,5R,8R,10R,11R,12S,13S,14R)-11-(((3aR,4S,6R,7aS)-1,6-dimethyl-2-(trifluoromethyl)hexahydro-2H-pyrano[4,3-d]oxazol-4-yl)oxy)-2-ethyl-3,4,10-trihydroxy-13-(((2R,4R,5S,6S)-5-hydroxy-4-methoxy-4,6-dimethyltetrahydro-2H-pyran-2-yl)oxy)-3,5,6,8,10,12,14-heptamethyl-1-oxa-6-azacyclopentadecan-15-one], the minimal inhibitory concentration (MIC) in series [1] (read-out: MIC flag (*) at Example #) was less than 64 µg/mL.

With `CC[C@H]1OC(=O)[C@H](C)[C@@H](O[C@H]2C[C@@](C)(OC)[C@](O)(CNCCn3ccccc3=O)[C@H](C)O2)[C@H](C)[C@@H](O[C@@H]2O[C@H](C)C[C@H]3[C@H]2OC(C(F)(F)F)N3C)[C@](C)(O)C[C@@H](C)CN[C@H](C)[C@@H](O)[C@]1(C)O` (stereo partly drawn) [Example A-19, (2R,3S,4R,5R,8R,10R,11R,12S,13S,14R)-11-(((3aR,4S,6R,7aS)-1,6-dimethyl-2-(trifluoromethyl)hexahydro-2H-pyrano[4,3-d]oxazol-4-yl)oxy)-2-ethyl-3,4,10-trihydroxy-13-(((2R,4R,5S,6S)-5-hydroxy-4-methoxy-4,6-dimethyl-5-(((2-(2-oxopyridin-1(2H)-yl)ethyl)amino)methyl)tetrahydro-2H-pyran-2-yl)oxy)-3,5,8,10,12,14-hexamethyl-1-oxa-6-azacyclopentadecan-15-one], in series [1] (read-out: MIC flag (*) at Ex #), the MIC was less than 64 µg/mL.
